# Patent publication US4163051A, “Streptomycetal antibiotic” (Beecham Group Limited, priority 1975, dated 1979)
# Where a name gives a salt, the structure may show the parent alone.
# Tests used:
# Klebsiella aerogenes A [1] = test: activity in combination with ampicillin and cephaloridine (synergy, MIC); format: cell-based
# Procedure: (§1) The antibacterial activity of the material produced as above was determined by the microtitre method using the overnight inoculum of the test organism at 0.2% concentration. The synergistic activity of the di-sodium salt of MM 17880 in combination with ampicillin and with cephaloridine against Klebsiella aerogenes and Staphylococcus aureus Russell are shown in Table 3.
# [2] = test system: Staphylococcus aureus Russell; test: as above; format: cell-based
# Procedure: as §1
# [3] = stability of salts and unsalted acid; format: physicochemical; conditions: salts vs unsalted acid; in solution
# Klebsiella aerogenes = test: hole in plate method on agar seeded with Klebsiella aerogenes (arbitrary units); format: cell-based; conditions: final solid of Example 1, sodium salt
# Procedure: 300 ml. of 10% Pluronic L81 in soya-bean oil was added to prevent foaming. The fermentation was harvested after 48 hours and clarified by centrifugation. The clarified brew was arbitarily assigned an activity of 340 units/ml when assayed by the conventional hole in plate method on agar seeded with Klebsiella aerogenes.
# Pseudomonas aeruginosa A = test: antibacterial activity (MIC), microtitre method, heavy inoculum; format: cell-based; conditions: overnight inoculum at 0.2%
# Procedure: as §1
# (§2) Microtitre - heavy inoculum
# Streptococcus faccalis I = test: as above; format: cell-based; conditions: overnight inoculum at 0.2%
# Procedure: as §1, §2
# Klebsiella aerogenes A [4] = test: as above; format: cell-based; conditions: overnight inoculum at 0.2%
# Procedure: as §1, §2
# [5] = test system: Staphylococcus aureus Oxford; test: as above; format: cell-based; conditions: overnight inoculum at 0.2%
# Procedure: as §1, §2
# [6] = test system: Klebsiella aerogenes Ba95; test: as above; format: cell-based; conditions: overnight inoculum at 0.2%
# Procedure: as §1, §2
# [7] = test system: Streptococcus pyrogenes CN10; test: as above; format: cell-based; conditions: overnight inoculum at 0.2%
# Procedure: as §1, §2
# E. coli JT4 = test: as above; format: cell-based; conditions: overnight inoculum at 0.2%
# Procedure: as §1, §2
# [8] = test system: Citrobacter freundii Mantio; test: as above; format: cell-based; conditions: overnight inoculum at 0.2%
# Procedure: as §1, §2
# Proteus retigeri VM16 = test: as above; format: cell-based; conditions: overnight inoculum at 0.2%
# Procedure: as §1, §2
# Bacillus subtilis = test: as above; format: cell-based; conditions: overnight inoculum at 0.2%
# Procedure: as §1, §2
# Proteus vulgaris W090 = test: as above; format: cell-based; conditions: overnight inoculum at 0.2%
# Procedure: as §1, §2
# E. coli 10418 = test: as above; format: cell-based; conditions: overnight inoculum at 0.2%
# Procedure: as §1, §2
# [9] = test system: Staphylococcus aureus Russell; test: as above; format: cell-based; conditions: overnight inoculum at 0.2%
# Procedure: as §1, §2
# [10] = test system: Salmonella typhimurium CT10; test: as above; format: cell-based; conditions: overnight inoculum at 0.2%
# Procedure: as §1, §2
# Proteus mirabilis 13 = test: as above; format: cell-based; conditions: overnight inoculum at 0.2%
# Procedure: as §1, §2
# Proteus morganii 1580 = test: as above; format: cell-based; conditions: overnight inoculum at 0.2%
# Procedure: as §1, §2
# Serratia marcescens US1 = test: as above; format: cell-based; conditions: overnight inoculum at 0.2%
# Procedure: as §1, §2
# [11] = test system: certain β-lactamase producing strains of Staphylococcus aureus and Klebsiella aerogenes; test: synergy with β-lactam antibiotics (general statement); format: cell-based; conditions: substantially pure; with ampicillin, amoxycillin and the like
# [12] = target: T1, β-lactamase from E. coli JT4 (Escherichia coli, UniProt P62593); test: β-lactamase inhibition by the method of Belgian Pat. No. 827331; format: biochemical; conditions: read-out: I50 (converted)
# T1 construct: β-lactamase from E. coli JT4; endogenous in cells; host or cells: E. coli JT4
# [13] = test system: certain gram-positive and gram-negative organisms; test: antibacterial activity, microtitre method (general statement); format: cell-based; conditions: substantially pure
# From the text: It is likely that MM 17880 has a molecular weight between 300 and 500. […] Thus MM 17880 has the molecular formula C11-14 […]-23 O8-11 N2 S2.
# T1 sequence (P62593 24-286 limits assumed): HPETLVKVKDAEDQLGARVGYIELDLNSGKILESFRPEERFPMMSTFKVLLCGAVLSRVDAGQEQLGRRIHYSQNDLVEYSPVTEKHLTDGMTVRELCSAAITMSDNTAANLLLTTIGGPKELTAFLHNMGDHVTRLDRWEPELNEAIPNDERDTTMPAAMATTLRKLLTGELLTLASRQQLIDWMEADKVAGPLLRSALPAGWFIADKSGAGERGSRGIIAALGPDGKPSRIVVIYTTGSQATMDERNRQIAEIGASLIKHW
compound,measurement,setting,value
"CC1(C)S[C@@H]2[C@H](NC(=O)[C@H](N)c3ccccc3)C(=O)N2[C@H]1C(=O)O [Ampicillin, ampicillin]",MIC,Klebsiella aerogenes A [1],250 µg/mL
same,MIC,[2],500 µg/mL
CC(=O)NCCSC1=C(C(=O)O)N2C(=O)C(C(C)OS(=O)(=O)O)C2C1 (stereo not shown) [MM 17880],stability,[3],tends to decompose in solution
same,"activity (assayed, arbitrary units)",Klebsiella aerogenes,"16,000 units/mg"
same,MIC,Pseudomonas aeruginosa A,> 50 µg/mL
same,MIC,Streptococcus faccalis I,6.2 µg/mL
same,MIC,Klebsiella aerogenes A [4],0.8 µg/mL
same,MIC,[5],0.4 µg/mL
same,MIC,[6],12.5 µg/mL
same,MIC,[7],< 0.01 µg/mL
same,MIC,E. coli JT4,3.1 µg/mL
same,MIC,[8],3.1 µg/mL
same,MIC,Proteus retigeri VM16,0.2 µg/mL
same,MIC,Bacillus subtilis,0.2 µg/mL
same,MIC,Proteus vulgaris W090,0.2 µg/mL
same,MIC,E. coli 10418,0.1 µg/mL
same,MIC,[9],0.4 µg/mL
same,MIC,[10],0.2 µg/mL
same,MIC,Proteus mirabilis 13,1.6 µg/mL
same,MIC,Proteus morganii 1580,1.6 µg/mL
same,MIC,Serratia marcescens US1,0.4 µg/mL
same,MIC,Klebsiella aerogenes A [1],0.2 µg/mL
same,MIC,[2],3.1 µg/mL
CC(=O)NCCSC1=C(C(=O)O)N2C(=O)C(C(C)OS(=O)(=O)O)C2C1 (stereo not shown) [di-sodium salt of MM 17880],synergy with β-lactam antibiotics,[11],able to synergyse the anti-bacterial activity of β-lactam antibiotics
same,IC50,[12],0.634 nM
same,level of antibacterial activity,[13],good level of antibacterial activity
"O=C(Cc1cccs1)N[C@@H]1C(=O)N2C(C(=O)[O-])=C(C[n+]3ccccc3)CS[C@H]12 [Cephaloridine, cephaloridine]",MIC,Klebsiella aerogenes A [1]; compound alone,5.0 µg/mL
same,MIC,[2]; compound alone,1.25 µg/mL
